The values below are quoted from earlier work in patent publication EP1019029B1, “MONOLITHIC SYSTEM CONTAINING ONE OR MORE DRUGS, CONSISTING OF THREE LAYERS WITH DIFFERENT RELEASE MECHANISMS” (CHIESI FARMACEUTICI S.p.A., priority 1997, dated 1999).

Like-named read-outs stand apart in the source and are kept apart here.

Turning to `C[C@@](Cc1ccc(O)c(O)c1)(NN)C(=O)O` [Carbidopa], where the note is “at 37°C”, the water solubilities is 2.5 mg/mL.
Regarding `COC(=O)[C@@H](N)Cc1ccc(O)c(O)c1` [Levodopa methyl ester], under “at 20°C”, the water solubilities was 500 mg/mL.
